Key:
[1] = system: A498; test: NCI SRB growth inhibition (single dose 10 µM / five-dose); type: cell-based, human; conditions: Homo sapiens; for inhibition at 10 µM: A498 (Renal cancer), read-out: GI%; for GI50: A498, Renal cancer, five-dose
Protocol: (§1) Screening of cytotoxic activity against a panel of sixty human tumor cell lines The selected compounds by NCI were evaluated for their anticancer activity in a two- stage process. […] Then, the output from the single dose screen is reported as a mean graph. […] Assay protocol. […] For a typical screening experiment, cells are inoculated into 96 well microtiter plates in 100 µL at plating densities ranging from 5000 to 40,000 cells/well depending on the doubling time of individual cell lines. […] After 24 h, two plates of each cell line are fixed in situ with TCA, to represent a measurement of the cell population for each cell line at the time of drug addition (Tz). The experimental drugs are solubilized in dimethyl sulfoxide at 400-fold the desired final maximum test concentration and stored frozen prior to use. At the time of drug addition, an aliquot of frozen concentrate is thawed and diluted to twice the desired final maximum test concentration with complete medium containing 50 µg/mL gentamicin. Additional four, 10-fold or ½ log serial dilutions are made to provide a total of five drug concentrations plus control. Aliquots of 100 mL of these different drug dilutions are added to the appropriate microtiter wells already containing […] of medium, resulting in the required final drug concentrations. […] For adherent cells, the assay is terminated by the addition of cold TCA. […] The supernatant is discarded, and the plates are washed five times with tap water and air dried. Sulforhodamine B (SRB) solution ([…]) at 0.4% (w/v) in 1% acetic acid is added to each well, and plates are incubated for 10 min at room temperature. After staining, unbound dye is removed by washing five times with 1% acetic acid and the plates are air dried. […] Using the seven absorbance measurements [time zero, (Tz), control growth, (C), and test growth in the presence of drug at the five concentration levels (Ti)], the percentage growth is calculated at each of the drug concentrations levels. Percentage growth inhibition is calculated as: [(Ti Tz)/(C–Tz)] x 100 for concentrations for which Ti>/=Tz and [(Ti-Tz)/Tz] x 100 for concentrations for which Ti < Tz. Three dose response parameters are calculated for each experimental agent. […] The drug concentration resulting in total growth inhibition (TGI) is calculated from Ti = Tz. […] Values are calculated for each of these three parameters if the level of activity is reached; however, if the effect is not reached or is exceeded, the value for that parameter is expressed as greater or less than the maximum or minimum concentration tested.

[2] = system: SW-620; test: as above; type: cell-based, human; conditions: Homo sapiens; for inhibition at 10 µM: SW-620 (Colon cancer), read-out: GI%; for GI50: SW-620, Colon cancer, five-dose
Protocol: as §1

[3] = system: RPMI-8226; test: as above; type: cell-based, human; conditions: Homo sapiens; for inhibition at 10 µM: RPMI-8226 (Leukemia), read-out: GI%; for GI50: RPMI-8226, Leukemia, five-dose
Protocol: as §1

[4] = system: SF-539; test: as above; type: cell-based, human; conditions: Homo sapiens; for inhibition at 10 µM: SF-539 (CNS cancer), read-out: GI%; for GI50: SF-539, CNS cancer, five-dose
Protocol: as §1

[5] = system: K-562; test: as above; type: cell-based, human; conditions: Homo sapiens, K562; for inhibition at 10 µM: K-562 (Leukemia), read-out: GI%; for GI50: K-562, Leukemia, five-dose
Protocol: as §1

[6] = system: HCT-116; test: as above; type: cell-based, human; conditions: Homo sapiens, HCT-116; for inhibition at 10 µM: read-out: GI%
Protocol: as §1

[7] = system: MCF7; test: as above; type: cell-based, human; conditions: Homo sapiens; for inhibition at 10 µM: MCF7 (Breast cancer), read-out: GI%; for GI50: MCF7, Breast cancer, five-dose
Protocol: as §1

[8] = system: MDA-MB-468; test: as above; type: cell-based, human; conditions: Homo sapiens; for inhibition at 10 µM: MDA-MB-468 (Breast cancer), read-out: GI%; for GI50: MDA-MB-468, Breast cancer, five-dose
Protocol: as §1

[9] = system: LOX IMVI; test: as above; type: cell-based, human; conditions: Homo sapiens; for inhibition at 10 µM: LOX IMVI (Melanoma), read-out: GI%; for GI50: LOX IMVI, Melanoma, five-dose
Protocol: as §1

[10] = system: SNB-19; test: as above; type: cell-based, human; conditions: Homo sapiens; for inhibition at 10 µM: SNB-19 (CNS cancer), read-out: GI%; for GI50: SNB-19, CNS cancer, five-dose
Protocol: as §1

[11] = system: SNB-75; test: as above; type: cell-based, human; conditions: Homo sapiens; for inhibition at 10 µM: SNB-75 (CNS cancer), read-out: GI%; for GI50: SNB-75, CNS cancer, five-dose
Protocol: as §1

[12] = system: DU-145; test: as above; type: cell-based, human; conditions: Homo sapiens; for inhibition at 10 µM: DU-145 (Prostate cancer), read-out: GI%; for GI50: DU-145, Prostate cancer, five-dose
Protocol: as §1

[13] = biological target: T1, VEGFR-2 (Homo sapiens, UniProt P35968); test: VEGFR-2 kinase assay kit (BPS), Kinase-Glo Max luminescence; type: biochemical; conditions: VEGFR-2, single dose 10 µM, duplicate, mean ± SD
T1 construct: purchased BPS Biosciences 40325
Protocol: 2. Biochemical kinase assay procedure
The inhibitory activity against different kinases was determined using kinase kits […]
from BPS Biosciences and kinase-Glo Max luminescence kinase assay kit (Promega).
The assay was carried out according to the protocol provided by the manufacturer. A stock solution of the synthesized derivatives in 100% DMSO was prepared. Subsequently, the compounds were diluted to 10% DMSO.
A master mixture was prepared according to the number of wells. For VEGFR-2 and FGFR-1 biochemical assays each well include 6 μl of 5x Kinase Buffer 1 + 1 μl of 500 μM ATP + 1 μl of PTK Substrate (Poly-Glu,Tyr 4:1) (10 mg/ml) + 17 μl of distilled water. For BRAF assay each well include 6 μl of 5x Kinase Buffer 1 + 1 μl of ATP (500 μM) + 10 μl of 5X Raf substrate + 8 μl of distilled water. 1x Kinase buffer 1 was prepared by mixing 600 μl of 5x Kinase Buffer 1 with 2400 μl water to give 3 mL. Kinases were thawed on ice and were diluted with 1x Kinase Buffer 1.
To start the biochemical reaction, 25 µL of the master mixture was added to each well in 96 well plate. 5 µL of 10% DMSO was added to positive control wells and blank wells. 5 µL of diluted inhibitor was added to each well labelled with the test inhibitor so that the final concentration of DMSO is 1% in all reactions. Then 20 µL of (1 ng / μl) in case of VEGFR-2 and FGFR-1 or (2.5 ng/μl) in case of BRAF in 1x kinase buffer was added to positive control wells and wells labelled with the inhibitor, while 20 µL 1x kinase buffer 1 was added to the […]
The plate was incubated at 30 °C for 45 min. Subsequently, 50 μl of Kinase-Glo Max luminescence reagent was added to each well and the plate was covered with aluminum foil and incubated at room temperature 15 min. Finally, the luminescence was recorded using multimode microplate reader. Kinase activity assays were performed in duplicate at each […]
The luminescence data were analyzed as follows. The difference between luminescence intensities in the absence of kinase (Lut) and in the presence of kinase (Luc) was defined as 100 % activity (Lut – Luc). Using luminescence signal (Lu) in the presence of the compound, % activity was calculated as: % activity = {(Lut - Lu)/(Lut - Luc)}×100%. The […]
concentration of the test compounds required to reduce the kinase activity by 50% was determined from dose-response curves and recorded as their IC50. […]

T1 sequence (P35968 20-1356): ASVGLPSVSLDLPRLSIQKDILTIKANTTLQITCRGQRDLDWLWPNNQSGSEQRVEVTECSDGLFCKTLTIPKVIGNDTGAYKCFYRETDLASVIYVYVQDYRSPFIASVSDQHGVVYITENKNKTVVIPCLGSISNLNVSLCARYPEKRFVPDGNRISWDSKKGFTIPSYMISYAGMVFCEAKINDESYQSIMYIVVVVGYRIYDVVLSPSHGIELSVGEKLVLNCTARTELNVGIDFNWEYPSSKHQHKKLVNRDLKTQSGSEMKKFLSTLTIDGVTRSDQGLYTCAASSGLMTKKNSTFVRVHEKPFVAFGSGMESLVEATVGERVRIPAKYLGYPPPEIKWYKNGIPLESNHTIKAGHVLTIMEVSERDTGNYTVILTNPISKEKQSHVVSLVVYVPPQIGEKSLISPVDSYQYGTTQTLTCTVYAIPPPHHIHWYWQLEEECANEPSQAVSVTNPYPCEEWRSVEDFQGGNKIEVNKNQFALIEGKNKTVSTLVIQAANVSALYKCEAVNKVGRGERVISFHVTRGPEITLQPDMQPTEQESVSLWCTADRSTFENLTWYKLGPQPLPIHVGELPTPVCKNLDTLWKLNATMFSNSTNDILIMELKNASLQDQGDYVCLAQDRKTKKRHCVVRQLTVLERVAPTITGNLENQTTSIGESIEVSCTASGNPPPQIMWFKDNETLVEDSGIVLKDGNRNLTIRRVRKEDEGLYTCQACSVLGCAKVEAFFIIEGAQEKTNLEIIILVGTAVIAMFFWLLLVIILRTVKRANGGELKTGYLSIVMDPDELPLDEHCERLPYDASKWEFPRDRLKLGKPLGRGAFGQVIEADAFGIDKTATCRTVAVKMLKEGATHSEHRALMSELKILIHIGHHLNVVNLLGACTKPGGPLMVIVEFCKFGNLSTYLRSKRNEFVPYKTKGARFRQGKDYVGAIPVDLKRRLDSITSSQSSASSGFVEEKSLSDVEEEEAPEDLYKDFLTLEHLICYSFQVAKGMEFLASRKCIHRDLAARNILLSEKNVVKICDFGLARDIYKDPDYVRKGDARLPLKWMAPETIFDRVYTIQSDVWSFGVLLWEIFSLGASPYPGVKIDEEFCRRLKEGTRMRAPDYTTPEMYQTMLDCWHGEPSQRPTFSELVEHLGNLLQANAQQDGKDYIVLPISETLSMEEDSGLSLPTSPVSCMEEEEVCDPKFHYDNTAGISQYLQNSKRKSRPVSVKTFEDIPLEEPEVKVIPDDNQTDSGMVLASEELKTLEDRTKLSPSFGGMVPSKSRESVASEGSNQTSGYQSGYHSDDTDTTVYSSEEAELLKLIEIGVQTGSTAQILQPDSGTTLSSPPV

Row | Compound | inhibition at 10 µM [1] | inhibition at 10 µM [2] | inhibition at 10 µM [3] | inhibition at 10 µM [4] | inhibition at 10 µM [5] | inhibition at 10 µM [6] | inhibition at 10 µM [7] | inhibition at 10 µM [8] | inhibition at 10 µM [9] | inhibition at 10 µM [10] | inhibition at 10 µM [11] | inhibition at 10 µM [12] | inhibition at 10 µM [13] | GI50 [1] | GI50 [2] | GI50 [3] | GI50 [4] | GI50 [5] | GI50 [6] | GI50 [7] | also measured
1 | COc1ccc(-c2nc3cc(C(=O)NN=Cc4cc(OC)c(OC)c(OC)c4)ccc3[nH]2)cc1 [8n, 2-(4-Methoxyphenyl)-N'-(3,4,5-trimethoxybenzylidene)-1H-benzo[d]imidazole-5-carbohydrazide] | < 5% | < 5% | 44.5% | 24.4% | 23.7% | 23.4% | 73.1% | < 5% | 7.53% | 36.2% | < 5% | < 5% | 20.8 ± 1.78% | – | – | – | – | – | – | – | –
2 | O=C(NN=Cc1ccccc1O)c1ccc2[nH]c(-c3ccc(Cl)cc3)nc2c1 [8o, 2-(4-Chlorophenyl)-N'-(2-hydroxybenzylidene)-1H-benzo[d]imidazole-5-carbohydrazide] | 53.9% | > 100% | 88.2% | > 100% | 85.5% | 98.4% | 93.7% | > 100% | > 100% | > 100% | > 100% | > 100% | 22.3 ± 1.95% | 8.1 µM | 0.33 µM | > 38.8 µM | 0.37 µM | 0.15 µM | 1.08 µM | 0.16 µM | GI50 [8]: 1.51 µM; GI50 [9]: 0.43 µM; GI50 [10]: 1.12 µM; GI50 [11]: 0.74 µM; GI50 [12]: 1.36 µM
3 | COc1cccc(C=NNC(=O)c2ccc3[nH]c(-c4ccc(Cl)cc4)nc3c2)c1 [8q, 2-(4-Chlorophenyl)-N'-(3-methoxybenzylidene)-1H-benzo[d]imidazole-5-carbohydrazide] | > 100% | > 100% | > 100% | > 100% | 98.1% | > 100% | > 100% | > 100% | > 100% | > 100% | > 100% | > 100% | 21.5 ± 1.54% | 15.3 µM | 2.93 µM | 1.47 µM | 7.14 µM | 3.14 µM | 3.06 µM | 2.57 µM | GI50 [8]: 2.97 µM; GI50 [9]: 1.82 µM; GI50 [10]: 2.17 µM; GI50 [11]: 5.69 µM; GI50 [12]: 2.04 µM
4 | COc1cccc(C=NNC(=O)c2ccc3[nH]c(-c4ccc(Cl)cc4)nc3c2)c1O [8r, 2-(4-Chlorophenyl)-N'-(2-hydroxy-3-methoxybenzylidene)-1H-benzo[d]imidazole-5-carbohydrazide] | > 100% | > 100% | > 100% | > 100% | > 100% | > 100% | > 100% | > 100% | > 100% | > 100% | > 100% | > 100% | 25.7 ± 1.87% | 12.1 µM | 1.32 µM | 2.22 µM | 1.07 µM | 0.49 µM | 1.19 µM | 0.66 µM | GI50 [8]: 1.44 µM; GI50 [9]: 1.18 µM; GI50 [10]: 1.31 µM; GI50 [12]: 1.99 µM
5 | COc1ccc(C=NNC(=O)c2ccc3[nH]c(-c4ccc(Cl)cc4)nc3c2)cc1O [8s, 2-(4-Chlorophenyl)-N'-(3-hydroxy-4-methoxybenzylidene)-1H-benzo[d]imidazole-5-carbohydrazide] | < 5% | 69.6% | > 100% | 47.2% | 50.3% | 69.5% | 84.9% | 88.7% | 44.9% | 39.7% | 6.41% | 16.2% | 26.7 ± 1.83% | – | – | – | – | – | – | – | –
6 | COc1ccc(OC)c(C=NNC(=O)c2ccc3[nH]c(-c4ccc(Cl)cc4)nc3c2)c1 [8t, 2-(4-Chlorophenyl)-N'-(2,5-dimethoxybenzylidene)-1H-benzo[d]imidazole-5-carbohydrazide] | 56.2% | 7.98% | 62.2% | 45.3% | 52.9% | 43.1% | 48.1% | 30.4% | 34.6% | 45.7% | 27.2% | 52% | 34 ± 2.57% | – | – | – | – | – | – | – | –
